Calls of active or inactive are those of the source. The rule behind the calls is not given here.
How the values were obtained:
[1] = tested on: Phytophthora capsici; test: (§1) Antioomycete activity against Phytophthora capsici zoospores suspension infected in pepper plants (cv. Hanbyul) at first branch stage pre-exposed to compound spray on stems before fungal infection assessed as reduction in Phyophthora blight disease severity at 100 ug/mL under greenhouse conditions; format: functional, organism-based
[2] = tested on: Phytophthora capsici; test: as §1, with “1 to 1000” for “100”; format: functional, organism-based
[3] = tested on: Capsicum annuum; test: Phytotoxicity in Phytophthora capsici zoospores suspension infected Capsicum annuum cv. Hanbyul (pepper) at first branch stage pre-exposed to compound spray on stems before fungal infection at 500 ug/mL under greenhouse conditions; format: organism-based; conditions: in vivo, other
[4] = tested on: Phytophthora capsici; test: Antioomycete activity against Phytophthora capsici zoospores suspension infected in pepper plants (cv. Hanbyul) at first branch stage pre-exposed to compound spray on stems before fungal infection assessed as reduction in Phyophthora blight disease severity at 500 ug/mL under greenhouse conditions; format: functional, organism-based

| SMILES | Activity [1] | Activity [2] | Activity [3] | Activity [4] |
| --- | --- | --- | --- | --- |
| COCC(=O)N(c1c(C)cccc1C)C(C)C(=O)OC (stereo not given) | Active | Dose-dependent effect |  |  |
| CN[C@@H]1C[C@H]2O[C@@](C)([C@@H]1OC)n1c3ccccc3c3c4c(c5c6ccccc6n2c5c31)C(=O)NC4 [STAUROSPORINE] |  | Dose-dependent effect | Non-toxic | Active |

Source: ChEMBL document CHEMBL3046630, “Isolation and antifungal and antioomycete activities of staurosporine from Streptomyces roseoflavus strain LS-A24” (J Agric Food Chem, 2006)
